Here are results for 2 compounds from publication PMC10720383, “Acetylcholinesterase Inhibition in Rats and Humans Following Acute Fenitrothion Exposure Predicted by Physiologically Based Kinetic Modeling-Facilitated Quantitative In Vitro to In Vivo Extrapolation” (Environmental Science & Technology, 2023).

Data set [1] addresses T1, self-prepared rat erythrocyte AChE (Rattus norvegicus, UniProt P37136).
T1 construct: rat erythrocyte AChE was prepared from rat whole; tissue BioIVT (West Sussex, UK); host or cells: rat whole blood (Sprague-Dawley, mixed gender, LiHep); erythrocyte AChE prepared in house
Briefly: In vitro AChE inhibition assay with self-prepared rat erythrocyte AChE in low-protein medium. The data set is classed as biochemical. The method, then: (§1) Inhibition of rat and human erythrocyte AChE by FNT and FNO was determined using rat and human blood. Additionally, in vitro AChE inhibition assay was also performed by exposing recombinant human AChE and self-prepared rat erythrocyte AChE to FNT and FNO in a low-protein medium to investigate the potential effect induced by blood matrix. Details are provided in the Supporting Information. […]
(§2) the remaining AChE activity in rat and human blood samples, respectively. Assays were conducted in triplicate, and the data obtained were analyzed in GraphPad Prism (version 5.04, San Diego, CA, USA) to define the concentration resulting in 50% inhibition (IC50).
(§3) In vitro AChE inhibition assay with self-prepared rat erythrocyte AChE and recombinant human […]
(§4) Based on the method described in Zhao et al. (2021), rat erythrocyte AChE was prepared from rat whole blood and the AChE activity was quantified (0.16 U/mL). The inhibition ability of FNT and FNO towards rhAChE and rat erythrocyte AChE was evaluated using a modified protocol (Zhao et al. 2021), and assays were conducted in triplicate. […] After 15 min incubation at 37℃, 150 µL reaction reagent (mixture of ATC at a final concentration of 150 µM and DTNB at a final concentration of 75 µM) was added, and the absorbance at 412 nm was measured continuously for 10 min at 37℃ to test the remaining AChE activity. The AChE activity was expressed as the remaining AChE activity relative to solvent control (100% activity) and positive control (0% activity) based on the equation (Eq S2): […]
(§5) A 412(t10 - t0) Test Compoundwhere is the change of the absorbance at 412 nm between 0 min and 10 min for the test compound; similarly, A 412(t10 - t0) Positive Control is the change of the absorbance for the CPO sample, and A 412(t10 - t0) Solvent Control the change of the absorbance for the 0.2% ethanol sample. […]
(§6) is relevant for the toxicity prediction following acute FNT exposure. The normalized sensitivity coefficients (SCs) were calculated with the equation (Eq S3)

For data set [2] the following is noted: assumed default for neutral and acidic compounds, no experimental data; cited from earlier work.
The target in the next data set is T2, rat erythrocyte AChE (Rattus norvegicus, UniProt P37136).
T2 construct: tissue Innovative Research Inc. (Novi, MI, USA); host or cells: rat whole blood (Sprague-Dawley), K2EDTA
T2 sequence (P37136 other isoform, or with tags, fused parts or gaps): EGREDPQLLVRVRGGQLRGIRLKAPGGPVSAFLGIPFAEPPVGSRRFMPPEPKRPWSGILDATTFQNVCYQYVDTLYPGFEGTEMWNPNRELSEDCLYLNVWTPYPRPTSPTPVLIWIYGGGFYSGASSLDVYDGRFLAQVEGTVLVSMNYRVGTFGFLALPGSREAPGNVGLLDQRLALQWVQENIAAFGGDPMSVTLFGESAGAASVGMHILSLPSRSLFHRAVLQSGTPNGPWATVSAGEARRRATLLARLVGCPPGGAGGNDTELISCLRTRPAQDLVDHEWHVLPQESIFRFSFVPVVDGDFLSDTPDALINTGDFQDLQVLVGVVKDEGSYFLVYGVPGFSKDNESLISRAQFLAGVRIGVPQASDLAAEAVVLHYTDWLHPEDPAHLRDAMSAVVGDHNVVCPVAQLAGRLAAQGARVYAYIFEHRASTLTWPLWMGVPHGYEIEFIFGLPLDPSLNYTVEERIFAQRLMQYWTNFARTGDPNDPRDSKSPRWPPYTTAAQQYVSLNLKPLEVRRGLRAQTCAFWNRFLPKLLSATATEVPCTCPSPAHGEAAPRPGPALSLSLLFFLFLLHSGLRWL
Nature of the data set: In vitro AChE inhibition assay with rat blood. The data set is classed as biochemical. The method, then:
as §1
(§7) Calculation of kinetic parameters […]
(§8) Protein concentration determination for rat and human plasma […]
(§9) In vitro AChE inhibition assay with rat and human blood
(§10) Inhibition of rat and human erythrocyte AChE by FNT and FNO was determined using the protocol from Kasteel et al. (2021). The final concentrations of FNT and FNO in rat and human blood ranged from 0.05 to 500 µM and from 0.01 to 20 µM, respectively (added from 1000 times concentrated stock solutions in ethanol). Absorbance at 436 nm was measured continuously for 60 min and 10 min to detect […]
(§11) the remaining AChE activity in rat and human blood samples, respectively. Assays were conducted in triplicate, and the data obtained were analyzed in GraphPad Prism (version 5.04, San Diego, CA, USA) to define the concentration resulting in 50% inhibition (IC50). […]

A further data set concerns the target T3, recombinant human AChE (Homo sapiens, UniProt P22303).
T3 construct: purchased Sigma-Aldrich (St. Louis, MO, USA)
Briefly: In vitro AChE inhibition assay with recombinant human AChE in low-protein medium. The data set is classed as biochemical. How it is done:
as §1, §2, §3, §4, §5, §6

The target of a further data set is T4, human erythrocyte AChE (Homo sapiens, UniProt P22303).
T4 construct: tissue CTIBiotech (Lyon, France); host or cells: human whole peripheral blood, K2EDTA
T4 sequence (P22303 32-617 isoform P22303-2 limits assumed): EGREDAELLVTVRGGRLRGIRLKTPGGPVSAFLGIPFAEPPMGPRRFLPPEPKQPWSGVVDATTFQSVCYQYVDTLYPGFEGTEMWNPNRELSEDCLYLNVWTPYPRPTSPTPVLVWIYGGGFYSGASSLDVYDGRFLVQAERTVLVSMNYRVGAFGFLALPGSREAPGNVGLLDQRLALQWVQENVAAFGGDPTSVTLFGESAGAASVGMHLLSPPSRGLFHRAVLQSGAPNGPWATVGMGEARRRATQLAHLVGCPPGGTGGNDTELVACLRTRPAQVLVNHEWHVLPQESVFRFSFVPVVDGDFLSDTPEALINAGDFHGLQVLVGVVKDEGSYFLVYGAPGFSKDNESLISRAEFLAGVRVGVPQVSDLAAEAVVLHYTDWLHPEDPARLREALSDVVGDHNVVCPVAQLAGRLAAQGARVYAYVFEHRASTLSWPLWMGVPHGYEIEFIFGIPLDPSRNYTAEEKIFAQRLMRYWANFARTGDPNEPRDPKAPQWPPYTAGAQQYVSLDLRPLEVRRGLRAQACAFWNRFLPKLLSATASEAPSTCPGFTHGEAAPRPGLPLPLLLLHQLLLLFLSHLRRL
Briefly: In vitro AChE inhibition assay with human blood. The data set is classed as biochemical. The method, then:
as §1, §7, §8, §9, §10, §11

What is called IC50 is the concentration at which inhibition is half-maximal.

T1 sequence (P37136 other isoform, or with tags, fused parts or gaps): as the sequence (P37136 other isoform, or with tags, fused parts or gaps) above
T3 sequence (P22303 32-614): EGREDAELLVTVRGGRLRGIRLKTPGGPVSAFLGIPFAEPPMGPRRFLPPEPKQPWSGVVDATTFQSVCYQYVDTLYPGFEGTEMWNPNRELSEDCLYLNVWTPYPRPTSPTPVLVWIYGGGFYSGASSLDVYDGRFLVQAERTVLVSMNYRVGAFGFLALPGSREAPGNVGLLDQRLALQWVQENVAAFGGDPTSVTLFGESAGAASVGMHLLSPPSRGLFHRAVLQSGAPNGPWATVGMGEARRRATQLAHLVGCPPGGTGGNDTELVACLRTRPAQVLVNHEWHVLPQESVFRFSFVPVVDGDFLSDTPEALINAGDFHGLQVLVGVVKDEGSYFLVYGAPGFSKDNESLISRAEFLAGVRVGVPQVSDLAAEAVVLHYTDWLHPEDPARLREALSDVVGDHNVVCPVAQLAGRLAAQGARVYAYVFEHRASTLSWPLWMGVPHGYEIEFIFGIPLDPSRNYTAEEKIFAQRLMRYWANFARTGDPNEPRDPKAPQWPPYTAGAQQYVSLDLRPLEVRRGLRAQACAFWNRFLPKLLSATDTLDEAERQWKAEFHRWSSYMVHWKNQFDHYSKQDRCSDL

With `COP(=O)(OC)Oc1ccc([N+](=O)[O-])c(C)c1` [FNO, fenitrooxon], the half-maximal inhibitory concentration (IC50) was found to be 0.18 µM in data set [1], 0.95 µM against rat erythrocyte AChE, 0.25 µM at recombinant human AChE and 0.84 µM at human erythrocyte AChE. Also, in data set [1] (ratio of IC50 in rat blood to IC50 with self-prepared enzyme), the “IC50 fold lower with self-prepared rat erythrocyte AChE than in rat blood” value is given as 5.3 fold. Besides, in data set [2], the “blood plasma ratio (BPr)” value is reported as 0.55. Besides, the “IC50 fold lower with recombinant human AChE than in human blood” value at recombinant human AChE (ratio of IC50 in human blood to IC50 with recombinant enzyme) is 3.4 fold.
Regarding `COP(=S)(OC)Oc1ccc([N+](=O)[O-])c(C)c1` [FNT, O,O-dimethyl O-4-nitro-m-tolyl phosphorothioate], the IC50 in data set [1] was 8.24 µM; at rat erythrocyte AChE, around 500 µM; on recombinant human AChE, 30.9 µM; at human erythrocyte AChE it was above 500 µM. Moreover, in data set [2], the “blood plasma ratio (BPr)” value is given as 0.55.
